{"source": "patent US10172911B2", "about": "“Methods of modulating erythropoiesis with arginine vasopressin receptor 1B molecules” (The United States of America, as represented by the …, priority 2013, dated 2019)", "key": {"[1]": {"tested_on": "human CD34+ hematopoietic progenitors", "test": "Intracellular Ca2+ measurement in Fura-2 loaded human CD34+ hematopoietic progenitors", "type": "cell-based", "conditions": "human CD34+ cells, agonist stimulation", "experimental": "Human BMSCs were loaded with Fura-2 and the cells were stimulated with AVP, or OXT. Intracellular Ca^2+ concentration was assayed as described before (Ely, J. A. et al. J Biol Chem 266, 18635-18641 (1991). To study their response to AVP and specific AVP receptor agonists and antagonists human CD34+ hematopoietic progenitors were Fura-2 loaded and Cytoplasmic Ca2+ measurements were performed in cells kept in suspension using a fluorescence spectrophotometer (Deltascan, Photon Technology International). Ratiometric measurements were recorded at 340/380 nm excitation and 500 nm emission and the ratios were plotted against time. Ionomycin (10 μM) was added at the end of each run to determine the maximum fluorescence ratio."}, "mice": {"tested_on": "mice", "test": "Single intraperitoneal AVP injection, bone marrow populations 16 hours later", "type": "in vivo, mouse", "conditions": "i.p. 100 μg/kg, bone marrow 16 hours later", "experimental": "Short-term effect of a single intraperitoneal AVP injection: [Arg8]-Vasopressin (Ana-spec) (100 μg/kg body weight) together with 20 mg/kg body weight o-phenantroline (Sigma-Aldrich) or vehicle PBS with 20 mg/kg body weight o-phenantroline. 16 hours later bone marrow (two hind limbs) and spleen cells were obtained to study the distribu-tion of HSCs and multipotent progenitors (MPP) as well as intermediate lineage-com-mitted progenitors and the erythroid populations as described before (n=5/group) (Wilson et al. Cell 135, 1118-1129, doi:10.1016/j.cell.2008.10.048 (2008); Pronk, C. J. et al. Cell Stem Cell 1, 428-442, doi:10.1016/j.stem.2007.07.005 (2007); Weissman, I. L. Cell 100, 157-168 (2000). Serial AVP injections: Mice (n=8-9) were injected ip. 2 times/day with AVP 100 μg/kg body weight or PBS for 6.5 days. After day 6.5, mice were euthanized and the erythroid populations (CD71^+, Ter119^+) in spleen and bone marrow were analyzed (Cheshier, S. H. et al., Stem Cells Dev 16, 707-717, doi:10.1089/scd.2007.0017 (2007)."}, "human CD34^+ cells": {"tested_on": "human CD34^+ cells", "test": "BrdU cell proliferation assay, human CD34+ cells", "type": "cell-based", "experimental": "Sorted mouse bone marrow LSK cells (10000 cells/well) were plated in a 96 well plate in Stemspan serum free expansion medium ([…] Technologies, Vancouver, Canada) with Pen/Strep, and the following hematopoietic factors: 100 ng/ml TPO, 50 ng/ml FLT3L, 50 ng/ml IL-3 and SCF 100 ng/ml (Peprotech, Rocky Hill, N.J.). Cells were treated with […] (Sigma-Aldrich, St. Louis, Mo.). When using human CD34^+ cells (5000 cells/well), human SCF, TPO, FLT3L and G-CSF (Peprotech, each at 50-100 ng/ml) were added to the Stemspan medium. Cells were treated with 10^−8M-10^−14M AVP. After 24 hours, BrdU at a 1:1000 concentration was added to the cultures and incorporation of BrdU was measured using the Cell Proliferation ELISA BrdU kit (Roche, Mannheim, Germany) after another 24 hours of incubation."}, "Wnt pathway": {"tested_on": "Wnt pathway", "test": "Q-PCR and microarray of Wnt pathway genes in AVP-stimulated CD34+ cells", "type": "cell-based, human", "description": "FIGS. 3A-3D show studies of signaling pathways. FIG. 3A provides results from CFU assays showing E-CFU and GM-CFU numbers/1000 plated cells. […] Error bars represent means±SD * p<0.05, ** p<0.01, unpaired t-test. […] The cells were then fixed with 4% paraformaldehyde and washed before immunostaining. Following permeabilization with Triton-X 100 a primary antibody to β-catenin was applied followed by a fluorescent secondary antibody. The β-catenin translocated to the nucleus at the 10^−10 AVP concentration confirming the activation of the Wnt pathway. Scale: 10 μm. […] Using Q-PCR to detect changes in genes that reflect Wnt pathway activation, increases in CCND1, MYC and LEF1 in response to AVP stimulation were observed.\nThe resultant cDNA was amplified with QuantiTect SYBR Green RT-PCR kit (Qiagen) or with SYBR Green Supermix (Bio-Rad, Hercules, Calif.). For qPCR, cDNA (2 μls of cDNA for AVP expression and […] for OXT or beta-actin expression) was amplified with QuantiTect SYBR Green RT-PCR kit and the expression data were normalized to human beta-actin expression."}, "[2]": {"tested_on": "CD34^+ cells from healthy donors", "test": "CFU assay (E-CFU, GM-CFU) of human CD34+ cells in Methocult", "type": "cell-based", "conditions": "per 1000 plated CD34+ cells; 10^−8 M", "experimental": "CD34^+ cells from healthy donors were plated into semi-solid methylcellulose medium (Methocult) containing hematopoietic factors (GM-CSF 5 ng/ml, IL-3 5 ng/ml, SCF 50 ng/ml, EPO 2.5 U/ml).\nThe number of erythroid colony forming units (E-CFU) and granulocyte-macrophage colony forming units (GM-CFU) were determined based on morphological criteria on 7th and 14th days in culture."}, "WT mice": {"tested_on": "WT mice", "test": "AVP infusion in unmanipulated WT mice", "type": "in vivo, mouse", "conditions": "infused over a 3 week period"}, "[3]": {"conditions": "AVP stimulated CD34+ cells vs control cells"}}, "note": "“Also recorded” adds a separate entry of the source.", "data": [{"smiles": "NC(=O)CC[C@@H]1NC(=O)[C@H](Cc2ccccc2)NC(=O)[C@H](Cc2ccc(O)cc2)NC(=O)[C@@H](N)CSSC[C@@H](C(=O)N2CCC[C@H]2C(=O)N[C@@H](CCCN=C(N)N)C(=O)NCC(N)=O)NC(=O)[C@H](CC(N)=O)NC1=O", "note": "[AVP, [Arg8]-Vasopressin]", "values": [{"measurement": "intracellular calcium levels", "setting": "[1]", "value": "increases in their intracellular calcium levels; also recorded: increase in intracellular calcium; also recorded: increased intra-cellular Ca^2+ concentrations"}, {"measurement": "number of HSCs and early multipotent progenitors (MPPs)", "setting": "mice", "value": "No difference was detected"}, {"measurement": "number of red blood cell producing progenitors and blast cells (CMP, MEP, proerythroblast, erythroblasts)", "setting": "mice", "value": "statistically significant increase"}, {"measurement": "proliferation (BrdU) of human CD34+ cells / HSPCs", "setting": "human CD34^+ cells", "value": "induced proliferation; also recorded: significantly increased the proliferation"}, {"measurement": "LEF1 RNA", "setting": "Wnt pathway; [3]", "value": "an increase (statistically not significant)"}, {"measurement": "MYC RNA", "setting": "Wnt pathway; [3]", "value": "significantly more"}, {"measurement": "cyclin D1 (CCND1) RNA", "setting": "Wnt pathway; [3]", "value": "significantly more"}, {"measurement": "difference in Wnt pathway genes (CDON, DKK1, DPP10, FZD7 up; CDKN2A, FST, KLF5 down)", "setting": "Wnt pathway; single microarray study", "value": "over two-fold difference"}, {"measurement": "erythroid-colony forming unit (E-CFU) numbers", "setting": "[2]", "value": "significantly increased; also recorded: increased erythroid colony formation"}, {"measurement": "granulocyte macrophage-colony forming unit (GM-CFU) numbers", "setting": "[2]", "value": "increased both E-CFU and GM-CFU in another"}, {"measurement": "RBC numbers", "setting": "WT mice", "value": "gradually increased RBC numbers"}]}]}
